{"source": "patent US12016358B2", "about": "“Composition comprising taste modulation compounds, their use and foodstuff comprising them” (V. MANE FILS, priority 2015, dated 2024)", "format_in_all_cases": "in vivo, human", "key": {"[1]": {"test_system": "Saltiness and Salivation (cheese sauce)", "assay": "Various levels of pantolactone (D-isomer) in cheese sauce, expert tasters", "details": "for Saltiness score: 1 = low up to 5 = high, Control 1", "text": "Five expert tasters consumed the Control and then samples comprising various levels of pantolactone (D-isomer). It was concluded that pantolactone (D-isomer) is clean tasting up to 10-12 ppm in cheese sauce."}, "[2]": {"test_system": "Flavour Balance of a Tomato-Based Condiment", "assay": "Ketchup samples, expert panel", "details": "5.4 ppm; vs Control (0.1% ethyl alcohol)", "procedure": "Ketchup containing sucrose as the base sweetener in two different formulations and ketchup containing sucralose as the base sweetener in a third formulation were evaluated without (control) and with addition of pantolactone added at 5.4 ppm (test)."}, "[3]": {"test_system": "Sweetness of Rebaudioside-A", "assay": "Sweetness of Rebaudioside-A water solutions, expert tasters", "text": "The product containing either 25 or 250 ppm Reb-A without pantolactone (Control) is compared with the product containing pantolactone (D-isomer) added at either 5, 10 or 20 ppm as noted in Table 6."}, "[4]": {"test_system": "Sweetness and Bitterness of Milk Chocolate", "assay": "Milk chocolate, expert testers", "details": "5 ppm, vs Control", "text": "The taste perception of the product without the addition of flavour modification compostion (Control) was compared with the same product (Test) containing the flavour modifying composition."}, "[5]": {"test_system": "Complexity and Body of Wine", "assay": "Wine, expert tasters", "details": "5 ppm (each); vs Control", "procedure": "Pantolactone (D-isomer) and mevalonolactone were added individually or as a mixture at 5 ppm each to wine."}, "[6]": {"test_system": "umami taste perception (chicken broth)", "assay": "Chicken broth, expert tasters", "details": "Campbell's chicken noodle soup broth 50:50 with water; 5 ppm (each); vs Control", "text": "Five expert tasters consumed the Control (chicken broth) and then chicken broth with either 5 ppm of pantolactone (D-isomer) or 5 ppm of mevalonolactone."}, "[7]": {"test_system": "Heat Perception of Chili Extract Paste", "assay": "Heat perception of chili extract paste in water, expert tasters", "details": "5 ppm", "procedure": "Pantolactone (D-isomer) and mevalonolactone were added at 5 ppm to chili extract paste and dissolved in water.\nThe taste perception of the product without the flavour modifying composition (Control) was compared with the same product (Test) containing the flavour modifying composition. Four expert tasters consumed the chili extract paste solution alone and then the tasters consumed one of two different dilution formats (medium or hot) of the chili extract paste solution containing 5 ppm of either pantolactone (D-isomer) or mevalonolactone."}, "[8]": {"test_system": "Salt Taste in a Low Sodium Soy Sauce", "assay": "Low sodium soy sauce, expert tasters", "details": "5 ppm solution, 1 ml (0.005 mg) between two 1 g soy sauce portions", "procedure": "Low sodium soy sauce (Kikkoman's®) was evaluated without and with a water based solution of 2-acetyl-butyrolactone and 4-hydroxy-6-methyl-2-pyrone at 5 ppm concentration. Five expert tasters consumed 1 g low sodium soy sauce alone, then 1 ml of flavour modifying solution, and then again 1 g of the low sodium soy sauce."}, "[9]": {"test_system": "Saltiness of Cheese Sauce", "assay": "Cheese sauce (Ragu), expert tasters", "details": "5 ppm solution, 1 ml (0.005 mg) between two 20 g portions", "procedure": "Cheese sauce (Ragu®) was evaluated without and with a water based solution of 2-acetyl-butyrolactone and 4,6-dimethyl-alpha-pyrone at 5 ppm concentration. Five expert tasters consumed 20 g cheese sauce alone, then 1 ml of flavour modifying solution, and then again 20 g of cheese sauce."}, "[10]": {"test_system": "Saltiness and Salivation (cheese sauce)", "assay": "Mixtures of pantolactone, m-cresol and 3-n-propylphenol in cheese sauce, expert tasters", "text": "A number of combinations of Pantolactone, m-cresol and 3-n-propylphenol are noted in Table 15. Five expert tasters consumed the Control and then each of the treatments and recorded a score."}, "[11]": {"test_system": "Salt Taste in a Chicken Powder Solution", "assay": "Saltiness of chicken powder solution, DFR panel", "details": "chicken powder and sodium chloride in water, 5 ppm", "procedure": "Panelists evaluated all samples in fully enclosed partitioned booths under white lights. Fizz NETWORK Software Acquisitions Biosystemes 2.478 was used for data collection. Each panelist was provided with filtered water for rinsing and instructed to follow a strict rinsing procedure. The rinsing protocol required panelists to rinse prior to tasting the first sample, and after tasting each sample.\nSamples were evaluated using a Deviation from Reference (DFR) method. Panelists were given an identified reference labeled “000” and a coded sample simultaneously. The coded sample was either a blind, coded reference or a coded test sample. The panelists were instructed to taste the reference (000) first and mentally evaluate its SALTINESS intensity. Panelists were then instructed to taste and rate the coded sample's intensity for SALTINESS compared to the identified reference. Sample sets were given to the panelists in balanced, randomized order. A one-minute wait period was enforced between sample sets to reduce flavour carryover.\nPanelists rated SALTINESS intensity difference from the reference using a 9-pt scale anchored with the following descriptors: (−4) Extremely less than Reference, (0) Same as Reference, (4) Extremely more than Reference. Number values were NOT shown on the scale. Statistical mean differences were calculated using one-way ANOVA using Fizz Calculations Biosystemes 2.478. […]"}, "[12]": {"details": "water, 25 ppm Reb-A, 20 ppm pantolactone (D-isomer)"}}, "note": "“Also recorded” adds a separate entry of the source. Marks after values point to notes of the source that are not given here.", "data": [{"smiles": "CC1(C)COC(=O)C1O", "note": "(single isomer, unassigned) [pantolactone (D-isomer)]", "values": [{"measurement": "Salivation effect", "setting": "[1]; 0.54 ppm", "result": "no"}, {"measurement": "Saltiness score", "setting": "[1]; 0.54 ppm", "result": 1.8}, {"measurement": "Salivation effect", "setting": "[1]; 2.7 ppm", "result": "yes"}, {"measurement": "Saltiness score", "setting": "[1]; 2.7 ppm", "result": 2.2}, {"measurement": "Salivation effect", "setting": "[1]; 5.4 ppm", "result": "yes"}, {"measurement": "Saltiness score", "setting": "[1]; 5.4 ppm", "result": 2.5}, {"measurement": "Salivation effect", "setting": "[1]; 10.8 ppm", "result": "yes"}, {"measurement": "Saltiness score", "setting": "[1]; 10.8 ppm", "result": 3}, {"measurement": "Salivation effect", "setting": "[1]; 27 ppm", "result": "yes"}, {"measurement": "Saltiness score", "setting": "[1]; 27 ppm", "result": "3 **"}, {"measurement": "Observations Ketchup sucralose-based, Source #3", "setting": "[2]", "result": "improved dramatically in all elements"}, {"measurement": "Observations Ketchup sucrose-based, Source #1", "setting": "[2]", "result": "enhanced in a balanced way"}, {"measurement": "Observations Ketchup sucrose-based, Source #2", "setting": "[2]", "result": "taste enhancement but not in a balanced way"}, {"measurement": "sweetness vs control sample", "setting": "[3]; increasing levels added to 25 ppm Reb-A water solutions, up to 20 ppm", "result": "more sweetness than the control sample"}, {"measurement": "perception of sweetness", "setting": "[3]; increasing levels added to 250 ppm Reb-A water solutions", "result": "cleaner upfront perception of sweetness with less lingering taste"}, {"measurement": "Taster Observations Taster 1", "setting": "[3]; [12]", "result": "second sweetest"}, {"measurement": "Taster Observations Taster 2", "setting": "[3]; [12]", "result": "sweet like 10 ppm"}, {"measurement": "sweetness and bitterness perception, Hershey's Bliss Chocolate", "setting": "[4]", "result": "perceived sweeter and less bitter"}, {"measurement": "perception of complexity and body, Box red wine - Vella Burgundy California Table Wine", "setting": "[5]", "result": "more complex and having more body"}, {"measurement": "Observations", "setting": "[6]", "result": "amplify umami taste perception; also recorded: Fatty from chicken fat; also recorded: Enhanced umami"}, {"measurement": "perception of heat (conclusion)", "setting": "[7]", "result": "lower perception of heat and less lingering of heat"}]}, {"smiles": "CC(=O)C1CCOC1=O", "note": "(stereo not shown) [2-acetyl-butyrolactone]", "values": [{"measurement": "Kikkoman's Low Sodium Soy Sauce: taste observation", "setting": "[8]", "result": "amplified saltiness; also recorded: slightly amplified saltiness"}, {"measurement": "Cheese Sauce: taste observation", "setting": "[9]", "result": "amplified saltiness; also recorded: Slightly amplified umami"}]}, {"smiles": "CCCc1cccc(O)c1", "note": "[3-n-propylphenol]", "values": [{"measurement": "conclusion on blends / components", "setting": "[10]", "result": "effective, but exhibits flavour aroma character at slightly elevated levels"}]}, {"smiles": "Cc1cc(C)oc(=O)c1", "note": "[4,6-dimethyl-alpha-pyrone]", "values": [{"measurement": "Cheese Sauce: taste observation", "setting": "[9]", "result": "amplified saltiness; also recorded: Slightly amplified umami"}]}, {"smiles": "Cc1cc(O)cc(=O)o1", "note": "[4-hydroxy-6-methyl-2-pyrone]", "values": [{"measurement": "Kikkoman's Low Sodium Soy Sauce: taste observation", "setting": "[8]", "result": "amplified saltiness"}]}, {"smiles": "C[C@@]1(O)CCOC(=O)C1", "note": "[mevalonolactone]", "values": [{"measurement": "perception of complexity and body, Box red wine - Vella Burgundy California Table Wine", "setting": "[5]", "result": "more complex and having more body"}, {"measurement": "Observations", "setting": "[6]", "result": "amplify umami taste perception; also recorded: Enhanced umami; also recorded: Fatty from chicken fat"}, {"measurement": "perception of heat (conclusion)", "setting": "[7]", "result": "enhanced perception of fruitiness but no change in the perception of heat"}]}, {"smiles": "CC1(C)COC(=O)C1O", "note": "(stereo not shown) [pantolactone, dihydro-3-hydroxy-4,4-dimethyl-2(3H)-furanone]", "values": [{"measurement": "difference in SALTINESS between Control and Variant", "setting": "[11]; Control presented as the reference", "result": "significant difference"}, {"measurement": "difference in SALTINESS between Control and Variant", "setting": "[11]; Variant presented as the reference", "result": "not a significant difference in SALTINESS"}]}]}
